Source: US6979685B1, “Cycloalkyl amine compounds and uses thereof” (Cardiome Pharma Corp., priority 1999, dated 2005)

Tests used:
[1] = test system: cardiac arrhythmias in conscious rats subjected to coronary artery occlusion; assay: Antiarrhythmic efficacy: arrhythmias induced by coronary artery occlusion in conscious rats; assay type: in vivo, rat; conditions: infusion rate which reduces the arrhythmia score to 50% of that of vehicle-treated animals
Protocol: Antiarrhythmic efficacy was assessed by investigating the effect of a compound on the incidence of cardiac arrhythmias in conscious rats subjected to coronary artery occlusion. Rats weighing 200–300 gms were subjected to preparative surgery and assigned to groups in a random block design. In each case, the animal was anesthetized with halothane during surgical preparation. The left femoral artery was cannulated for measurement of mean arterial blood pressure and withdrawal of blood samples. The left femoral vein was also cannulated for injection of drugs. The thoracic cavity was opened and a polyethylene occluder loosely placed around the left anterior descending coronary artery. The thoracic cavity was then closed. ECG was recorded by insertion of electrodes placed along the anatomical axis of the heart. All cannulae and electrode leads were exteriorized in the mid scapular region. […] ECG, arrhythmias, blood pressure, heart rate and mortality were monitored for 30 minutes after occlusion. Arrhythmias were recorded as ventricular tachycardia (VT) and ventricular fibrillation (VF) and scored according to Curtis, M. J. and Walker, M. J. A., Cardiovasc. […]
Occlusion is associated with increases in R-wave height and “S-T” segment elevation: and an occluded zone (measured after death by cardiogreen dye perfusion) in the range of 25%–50% of total left-ventricular weight. […]

[2] = test system: cardiac sodium channel blockage (left ventricle square wave stimulation); assay: Assessment of sodium channel blockage by electrical stimulation of the left ventricle in rats; assay type: in vivo; conditions: infusion rate eliciting a 25% increase from control; rat left ventricle stimulation
Protocol: Rats were prepared according to the preceding procedure. Two silver stimulating electrodes were inserted through the chest wall and implanted in the left ventricle. Square wave stimulation was used to determine threshold current for capture, ventricular fibrillation threshold current, and effective refractory period (Howard, P. G. and Walker, M. J. A., Proc. West. Pharmacol. Soc. 33:123–127 (1990)). Table 5 contains ED25 values for these indices of cardiac sodium channel blockage, where the ED25 is the infusion rate in micromol/kg/minute of compound required to elicit a 25% increase from control. The increases in refractoriness indicate ancillary blockage of potassium channels. The threshold current for capture is represented by “It”. The fibrillation threshold current is represented by “VFT”. The effective refracting period is represented by “ERP”.

[3] = test system: ECG parameters (cardiac sodium channel / potassium channel blockage); assay: Measurement of ECG parameters in pentobarbital anesthetized rats; assay type: in vivo, rat; conditions: bolus injection; for ED25 QT: dose producing a 25% increase in Q-T interval; for ED25 QRS: dose producing a 25% increase in QRS interval
Protocol: Rats weighing 200–250 gms were used in this example. Animals were anesthetized with 60 mg/kg pentobarbital i.p. The carotid artery and jugular vein were cannulated for measurement of blood pressure and drug injection, respectively. ECG was recorded by insertion of electrodes placed along the anatomical axis of the heart. All compounds were given as bolus injections.
Various ECG parameters were measured. Table 4 describes the results of the tests as ED25 (micromol/kg) which are the doses required to produce a 25% increase in the parameter measured (NE=not estimated). The increases in P—R interval and QRS interval indicate cardiac sodium channel blockage while the increase in Q-T interval indicates ancillary cardiac potassium channel blockage which is the property of a type 1a antiarrhythmic.

Structure (SMILES)	ED50AA [1]	ED25 ERP (effective refractory period) [2]	ED25 It (threshold current for capture) [2]	ED25 VFT (fibrillation threshold current) [2]	ED25 PR ([3]; dose producing a 25% increase in P-R interval)	ED25 QT [3]	ED25 QRS [3]
Cl.c1ccc2cc(CCOC3CCCC3N3CCOCC3)ccc2c1 [compound 1, (1R,2R)/(1S,2S)-2-(4-MORPHOLINYL)-1-(2-NAPHTHALENETHOXY)CYCLOPENTANE MONOHYDROCHLORIDE]	1.5 µmol/kg/min	2.5 µmol/kg/min	3.3 µmol/kg/min	1.3 µmol/kg/min	45 µmol/kg	2.5 µmol/kg	37 µmol/kg
Cl.O=C1CCN(C2CCCC2OCCc2c(Cl)cccc2Cl)C1 [compound 2, (1R,2R)/(1S,2S)-2-(3-KETOPYRROLIDINYL)-1-(2,6-DICHLOROPHENETHOXY)CYCLOPENTANE MONOHYDROCHLORIDE]	4 µmol/kg/min	2.6 µmol/kg/min	10 µmol/kg/min			3.3 µmol/kg	9 µmol/kg
